In patent publication US4096259A, “Non-amphetaminic psychostimulating compositions of 1,4-disubstituted piperazines” (priority 1975, dated 1978):

Tests used:
[1] = system: dog cardiovascular system; assay: Secondary action on the dog cardiovascular system, intravenous; type: in vivo; details: intravenous administration
[2] = system: sleep in mice; assay: Anti-sleep activity in mice; type: in vivo
[3] = Group toxicity (LD50 grouped mice / LD50 isolated mice); details: mouse, in vivo
[4] = system: mortality with pentetrazole in mice; assay: Potentiation of mortality with pentetrazole in mice; type: in vivo; details: per os
[5] = system: ptose with reserpine in mice; assay: Ptose antagonism with reserpine in mice; type: in vivo; details: Mus musculus, po, per os
[6] = system: aggressiveness in mice; assay: Aggressiveness in mice in the electric struggle test; type: in vivo; details: Mus musculus, po, per os, read-out: increase in aggressiveness in the electric struggle test ED50
[7] = Anorectic action in rats; type: in vivo
[8] = Chronic toxicity in rats, oral; type: in vivo; details: 6 out of 7 days
[9] = Acute toxicity (LD50) in mice, per os; details: mouse, in vivo, po
Source text: Acute toxicity was studied by determining the LD50 in mice, the derivatives being administered per os.

[10] = system: exploration response in mice; assay: Psychostimulating activity: increase of exploration response in mice (actimetry); type: in vivo; details: Mus musculus, po, per os, dose which increases exploration response by 50%
Source text: The psychostimulating activity was studied by determining the dose which increases the exploration response in mice (actimetry) by 50% (ED50),according to the method described by BOISSIER J.R. and SIMON P. (Arc. Int. Pharmacolyn, 1965, 212-221158).

[11] = system: neurotic depression, neurasthenia and school overwork; assay: Clinical test in neurotic depression, neurasthenia and school overwork; type: in vivo, adults; details: 30 mg daily oral, one month
Experimental: (§1) By way of example, clinical tests were carried out on derivatives N° 5 and 21.
Derivative N° 5 was administered at a dose of 30 mg daily in three oral administrations of 10 mg to 6 adults treated for neurotic depression, neurasthenia and school overwork. The following results were obtained after treatment for one month: […]

[12] = system: rabbit isolated ear; assay: In vitro spasmolytic action on the rabbit isolated ear; details: papaverine hydrochloride = 1
Source text: (§2) Table V below gives, by way of example, the complementary pharmacological activities such as antiserotonin, adrenolytic and atropinic activities for derivatives N° 21, 23 and 33, the spasmolytic activity of which is the greatest for the rat isolated duodenum.

[13] = system: Guinea-pig ileum; assay: In vitro atropinic action on the Guinea-pig ileum; details: Atropine sulfate = 1
Source text: as §2

[14] = system: rabbit aorta; assay: In vitro spasmolytic action on the rabbit aorta; details: papaverine hydrochloride = 1
Source text: as §2

[15] = system: Guinea-pig seminal vesicle; assay: In vitro adrenolytic action on the Guinea-pig seminal vesicle; details: Yohimbine hydrochloride = 1
Source text: as §2

[16] = system: paw vessels of the dog; assay: In vivo spasmolytic action on paw vessels of the dog; details: papaverine hydrochloride = 1
Source text: as §2

[17] = system: rat isolated duodenum; assay: In vitro papaverine spasmolytic activity: duodenum contractions in rats induced by barium chloride; details: for Spasmolytic activity (papaverine hydrochloride = 1): in vitro, rat duodenum, barium chloride, relative to papaverine hydrochloride = 1
Experimental: The papaverine spasmolytic activity was measured "in vitro" by the concentration ratio: active principle/papaverine hydrochloride concentration, which reduces duodenum contractions in rats, induced by barium chloride, by 50% according to the method of POMARET J. C., SERGANT - ODY M., POURRIAS B. and HUGUET G. (Therapie, 1969, 24, 109-143).
as §2

[18] = system: female rat uterus in oestrus; assay: In vitro anti-serotonin activity on the female rat uterus in oestrus; details: Methysergide = 1
Source text: as §2

[19] = system: arteritis of the lower limbs, cerebral vascular sclerosis, sequelae of hemiplegia; assay: Clinical test in arteritis of the lower limbs, cerebral vascular sclerosis, sequelae of hemiplegia; type: in vivo, adults; details: 15 mg/day oral, one month
Experimental: as §1

[20] = cerebral vascular sclerosis, 4 cases

SMILES	secondary action on the dog cardiovascular system [1]	Anti-sleep activity in mice [2]	selectivity ratio [3]	Potentiation of mortality with pentetrazole in mice ED50 [4]	ED50 [5]	LD50 [9]	ED50 [10]	In vitro spasmolytic action on the rabbit isolated ear [12]	In vitro atropinic action on the Guinea-pig ileum [13]	In vitro spasmolytic action on the rabbit aorta [14]	In vitro adrenolytic action on the Guinea-pig seminal vesicle [15]	In vivo spasmolytic action on paw vessels of the dog [16]	Spasmolytic activity (papaverine hydrochloride = 1) [17]	spasmolytic activity for the rat isolated duodenum (in words) [17]	other results
O=C(O)CCN1CCN(CCOC(c2ccccc2)c2ccc(F)cc2)CC1 (stereo not drawn) [Derivative 5]	devoid of any secondary action	Nil	0.6	160 mg/kg	100 mg/kg	800 mg/kg	22 mg/kg								ED50 [6]: 6.5 mg/kg; anorectic action in rats [7]: absence of anorectic action; chronic toxicity ([8]; oral, 80 mg/kg daily): low chronic toxicity; tolerance in chronic administration ([8]; oral, 80 mg/kg daily): well tolerated; presence of a psychostimulating action ([11]; 6 adults): 5 out of 6; Nil results, number of cases ([11]; neurasthenia (1 case)): 1 cases; Excellent results, number of cases ([11]; neurotic depression (2 cases)): 1 cases; Good results, number of cases ([11]; neurotic depression (2 cases)): 1 cases; Excellent results, number of cases ([11]; school overwork (3 cases)): 2 cases; Good results, number of cases ([11]; school overwork (3 cases)): 1 cases
O=C(CN1CCN(CCOC(c2ccccc2)c2ccccc2)CC1)N1CCN(Cc2ccc3c(c2)OCO3)CC1 [Derivative 33, 1-(piperonylpiperazinocarbonylmethyl)-4-(2-benzhydryloxyethyl)piperazine trimaleate]						600 mg/kg	25 mg/kg	0,5	> 0,01	5	6	9	10,5	greatest	
CCOC(=O)CCN1CCN(CCOC(c2ccc(F)cc2)c2ccc(F)cc2)CC1.Cl.Cl [Derivative 21, 1-(ethoxycarbonylethyl)-4[2(4,4'-difluorobenzhydryloxy)-ethyl]piperazine dihydrochloride]	devoid of any secondary action	Nil	0.4	> 100 mg/kg	70 mg/kg	750 mg/kg	30 mg/kg	1,5	> 0,01	5	4	30	8,5	greatest	In vitro anti-serotonin activity on the female rat uterus in oestrus [18]: 0,07; tolerance in chronic toxicity study ([8]; per os, 40 mg/kg, six months): perfectly well tolerated; Improvement of the psychic state ([19]; arteritis of the lower limbs, 8 cases): 4 times; Improvement in intellectual activity [19, 20]: once; Improvement of the psychic state [19, 20]: twice; Improvement of motor disturbances ([19]; hemiplegia sequelae, 2 cases): 0; Improvement of the psychic state ([19]; hemiplegia sequelae, 2 cases): once; spasmolytic activity of the papaverine type in the tests as a whole (in words) ([17]; tests as a whole): excellent spasmolytic activity
